The target in one series is mTOR (Homo sapiens, UniProt P42345). The experiment in a line: mTOR HTR-FRET Assay. Type of series: biochemical. The procedure: The following is an example of an assay that can be used to determine the mTOR inhibitory activity of a test compound. Reagents are prepared as follows:
“Simple TOR buffer” (used to dilute high glycerol TOR fraction): 10 mM Tris pH 7.4, 10 mM NaCl, 0.1% Tween-20, 1 mM DTT (from 1M stock frozen at −20° C. just prior to use). For convenience a large quantity of “Simple TOR buffer” w/o DTT can be stored at 4° C. It can be brought to room temperature and DTT added just prior to dilution of TOR fraction.
5XKB/5XMn/5×ATP solution (used to dilute substrate GST-p70S6kin 81 a.a. just prior to use) (40 ml screen quantity shown):
Enzyme solution: Dilute TOR fraction 1:14 in “Simple TOR Buffer”. For current lot that is 640 μg/ml TOR fraction diluted 14× to yield 45.7 μg/ml TOR in buffer (i.e. 7.85 ml TOR pooled fraction+102.1 ml Simple TOR buffer=110 ml 14× diluted TOR fraction). Each Enzyme Lot must be QC'd prior to assay.
Substrate solution: This may be prepared just prior to assay if preferred. Dilute 5.3 mg/ml GST-p70S6kinase fragment stock to 3.5 μg/ml (97 nM) working stock in 5XKB/5XMn/5×ATP solution (i.e. 26.41 μL (5.3 mg/ml) GST-p70S6+40 ml 5XKB/5XMn/5×ATP=40 ml 3.5 μg/ml (97 nM)).
Assay Buffer (for dilution of Antibodies used in Antibody Detection Reagent):
Antibody Detection Reagent (this reagent should be made just prior to addition to Assay Plates):
Using PlateTrak program (Screen) or Matrix Pipettor (SAR), 19.5 μL of diluted TOR fraction is added to assay plate in all test, reference or positive control wells. 19.5 μL of “Simple TOR buffer” is added to all negative control wells. If treating multiple plates with the same compounds, can increase volume of enzyme to multiples of 19.5 μL in a tall 384 well polypropylene plate.
Using EP3, 0.5 μl of test, reference or control DMSO is added to each well with mixing. Plates are incubated for 30 minutes at room temperature.
Using PlateTrak program (Screen) or Matrix Pipettor (SAR) 5 μL of 5XKB/5XMn/5×ATP/5× substrate solution is added to each well of the assay plate to start the reaction. The solutions are mixed well and incubated for 2 hours at room temperature.
Using PlateTrak program (Screen) or Matrix Pipettor (SAR) 5 μL of 60 mM EDTA is added to stop the reaction. The solutions are mixed well and allowed to sit for 15-20 minutes before the next step.
Using PlateTrak program (Screen) or Matrix Pipettor (SAR) 10 μl of Antibody Detection Reagent is added. The solutions are mixes well and incubated for 5 hours to O/N to allow antibodies to form complexes with phosphorylated substrate.
Plates are read on AnalystHT using protocol Multi-Method protocol.

The target of the next series is T1, IKK-2 (Homo sapiens, UniProt O14920, S177E/S181E).
T1 sequence (O14920 1-756 S177E/S181E): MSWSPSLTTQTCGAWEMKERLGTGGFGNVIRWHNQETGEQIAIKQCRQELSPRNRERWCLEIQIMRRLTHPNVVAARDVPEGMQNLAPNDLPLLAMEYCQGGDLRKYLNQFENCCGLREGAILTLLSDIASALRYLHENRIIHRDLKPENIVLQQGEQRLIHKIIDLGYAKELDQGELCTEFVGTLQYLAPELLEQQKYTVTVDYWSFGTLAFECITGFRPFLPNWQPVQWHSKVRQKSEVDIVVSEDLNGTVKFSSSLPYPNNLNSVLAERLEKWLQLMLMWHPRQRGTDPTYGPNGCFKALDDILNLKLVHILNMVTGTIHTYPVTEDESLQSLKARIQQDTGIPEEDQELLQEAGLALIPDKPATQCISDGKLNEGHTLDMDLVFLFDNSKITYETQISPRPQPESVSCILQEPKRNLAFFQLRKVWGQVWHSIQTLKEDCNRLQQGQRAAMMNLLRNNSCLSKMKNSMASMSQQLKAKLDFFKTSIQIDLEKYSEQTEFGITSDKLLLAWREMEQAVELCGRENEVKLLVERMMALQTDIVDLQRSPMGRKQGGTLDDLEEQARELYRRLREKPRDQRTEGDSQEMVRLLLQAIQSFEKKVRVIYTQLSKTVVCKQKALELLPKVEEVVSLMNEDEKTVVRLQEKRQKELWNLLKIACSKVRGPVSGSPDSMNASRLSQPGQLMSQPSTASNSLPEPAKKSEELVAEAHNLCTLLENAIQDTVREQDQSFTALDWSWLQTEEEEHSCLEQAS
The experiment in a line: IKK-2 screening assay (IKK2EE 33P Assay / IKK2EE NEMO HTRF Assay). Type of series: biochemical. On the procedure:
The following is an example of an assay that can be used to determine the IKK2EE inhibitory activity of a test compound.
A reaction buffer (pH 7.8) is prepared containing HEPES (20 mM), MgCl2 (10 mM), EDTA (0.1 mM), DTT (1 mM) and Triton X-100 (0.004%). IKK2EE (0.75 μg/ml is used. GST-IKBα (50 μg/ml) is used as substrate. Adenosine 5′-triphosphate (1.5 μM with ^33P-ATP 5 nCi/μl) is used. Reactions are stopped with trichloroacetic acid (6.25%).
Appropriate amounts of test compounds or controls in 100% DMSO are added to the assay plate. A peptide-substrate solution (PSS) is prepared by adding peptide stock to an appropriate volume of buffer (peptide concentration in the PSS will be about 100 μg/ml). An enzyme-peptide solution (EPS) is prepared by adding enzyme stock to an appropriate volume of PSS (the enzyme concentration in the EPS will be about 1 μg/ml). An ATP solution is prepared by adding ATP stock to an appropriate volume of buffer (the ATP concentration will be 15 μM).
85 μl of EPS is added to the assay wells (or PSS to positive control wells) of 96 well polypropylene plates. The ATP solution is then completed by adding ^33P-ATP (to a final concentration of 50 μCi/ml).
The reaction is initiated by adding 10 μl ATP solution to each well. Plates are shaken from about 12 seconds and allowed to incubate at room temperature for 1 hours. 100 μl of trichloroacetic acid solution (12.5%) is added to stop the reaction and the plates are incubated at room temperature for at least 10 minutes. The assay plates are harvested onto a Millipore Multiscreen harvest Plate FC using an appropriate harvester and the harvest plates are washed with 1×PBS solution for about 10 seconds (continuous flow). Harvest plates are allowed to dry thoroughly and the bottoms of the plates are sealed. 20-50 μl of Microscint20 is added to each well, tops are sealed and plates are read using an appropriate scintillation counter.
A reaction buffer (pH 7.6) is prepared containing HEPES (20 mM), MgCl2 (10 mM), EDTA (0.05 mM), DTT (1 mM) and Triton X-100 (0.004%). IKK2EE-NEMO (0.7 μg/ml is used. GST-IKBα (0.5 μg/ml) is used as substrate. Adenosine 5′-triphosphate (1.5 μM) is used. Detection reagents used are mouse anti-P-IKBα (30 ng/ml), Eu anti-mouse (300 ng/ml) and Cy5 anti-GST (11.5 μg/ml). Reactions are stopped with EDTA (20 mM).
An enzyme solution (ES) is prepared by adding enzyme stock to an appropriate volume of buffer (enzyme concentration in the ES will be about 1.7 ng/ml). A detection mixture (DM) is prepared by adding ATP (final conc. 3.75 μM), mouse anti-P-IKBα (final conc. 75 ng/ml), GST-IKBα (final conc. 1.26 μg/ml), Eu anti-mouse in buffer (final conc. 750 ng/ml).
5 μl of compound (solvated in 10% DMSO) is added to assay wells (or 10% DMSO to control wells) of low binding reaction plates. […] ES is added to assay wells (or buffer to control wells) and the reaction is initiated by adding 10 μl DM to all wells. Plates are incubated at room temperature for 45 minutes. Stop mixture is prepared by adding EDTA (final conc. 70 mM) and Cy5 anti-GST (final conc. 40 μg/ml) to an appropriate volume of buffer. Stop mixture is added and plates are shaken for 20 seconds and incubated at room temperature for at least 3 hours (preferably in the dark). Plates are read on an Analyst HT using Multi-Method HTRF.
In general terms: TR-FRET usually uses a lanthanide donor and a delayed reading to cut background.

Where only a bound is given, the exact number is not on record here.

Here are results for 14 compounds from patent publication US7968556B2, “Heteroaryl compounds, compositions thereof, and methods of treatment therewith” (Signal Pharmaceuticals, LLC, priority 2006, dated 2011).

Turning to `NC(=O)c1nc(-c2cccc(O)c2)nc2c1[nH]c(=O)n2C1CCCCC1` [Compound 33, 9-cyclohexyl-2-(3-hydroxyphenyl)-8-oxo-8,9-dihydro-7H-purine-6-carboxamide], the IC50 – broadly, the concentration needed to halve the response being measured – is 0.1 to 5 µM against mTOR and greater than 30 µM on IKK-2.

Take `Cc1ccccc1-n1c(=O)[nH]c2c(C(N)=O)nc(-c3cccc(O)c3)nc21` [Compound 9, 2-(3-hydroxyphenyl)-8-oxo-9-o-tolyl-8,9-dihydro-7H-purine-6-carboxamide]: the melting point (commonly the temperature, or range, at which the solid turns liquid) was 366 to 367 °C. The IC50 on mTOR fell in the range of 5.1 to 10 µM. Also, the IC50 on IKK-2 was greater than 30 µM.

Consider `COc1ccccc1-n1c(=O)[nH]c2c(C(N)=O)nc(-c3ccc4cc[nH]c4c3)nc21` [Compound 11, 2-(1H-indol-6-yl)-9-(2-methoxyphenyl)-8-oxo-8,9-dihydro-7H-purine-6-carboxamide], for which the melting point fell in the range of 203 to 204 °C. The same compound came in with an IC50 against mTOR of 10.1 to 20 µM. Moreover, the IC50 at IKK-2 was greater than 30 µM.

Regarding `NC(=O)c1nc(-c2cccnc2)nc2c1[nH]c(=O)n2C1CCN(C(=O)OCc2ccccc2)CC1` [Compound 32, benzyl 4-(6-carbamoyl-8-oxo-2-(pyridin-3-yl)-7H-purin-9(8H)-yl)piperidine-1-carboxylate], the IC50 fell in the range of 0.1 to 5 µM against mTOR and 10.1 to 20 µM at IKK-2.

The compound `NC(=O)c1nc(-c2cccnc2Cl)nc2c1[nH]c(=O)n2-c1ccccc1` [Compound 4, 2-(2-chloropyridin-3-yl)-8-oxo-9-phenyl-8,9-dihydro-7H-purine-6-carboxamide] registered a melting point of 283 to 286 °C. The compound further had an IC50 on mTOR greater than 30 µM. For the same compound, the IC50 at IKK-2 was greater than 30 µM.

In the case of `NC(=O)c1nc(-c2cccnc2)nc2c1ncn2-c1ccccc1` [Compound 35, 9-phenyl-2-(pyridin-3-yl)-9H-purine-6-carboxamide], the melting point lay in the range of 298 to 299 °C. At mTOR, this compound had a half-inhibitory concentration (IC50) of 20.1 to 30 µM. The compound further had an IC50 against IKK-2 of 5.1 to 10 µM.

Regarding `CN(C)C(=O)c1nc(-c2cccnc2)nc2c1[nH]c(=O)n2-c1ccccc1` [Compound 6, N,N-dimethyl-8-oxo-9-phenyl-2-(pyridin-3-yl)-8,9-dihydro-7H-purine-6-carboxamide], the melting point was 250 to 252 °C. Also, the IC50 against mTOR was greater than 30 µM. For the same compound, the IC50 against IKK-2 is greater than 30 µM.

`NC(=O)c1nc(-c2ccccn2)nc2c1[nH]c(=O)n2-c1ccccc1` [Compound 3, 8-oxo-9-phenyl-2-(pyridin-2-yl)-8,9-dihydro-7H-purine-6-carboxamide] yielded a melting point of 347 to 349 °C. Also, the IC50 at IKK-2 is 20.1 to 30 µM.

Compound `COc1ccccc1-n1c(=O)[nH]c2c(C(N)=O)nc(-c3cccc4ncccc34)nc21` [Compound 18, 9-(2-methoxyphenyl)-8-oxo-2-(quinolin-5-yl)-8,9-dihydro-7H-purine-6-carboxamide] had a melting point of 335 to 337 °C. On mTOR, this compound came in with an IC50 greater than 30 µM.

`COc1ccccc1-n1c(=O)[nH]c2c(C(N)=O)nc(-c3cccc(OC(F)(F)F)c3)nc21` [Compound 34, 9-(2-methoxphenyl)-8-oxo-2-(3-(trifluoromethoxy)phenyl)-8,9-dihydro-7H-purine-6-carboxamide] came in with a melting point of 269 to 272 °C. Further, on mTOR, the IC50 is greater than 30 µM.

`NC(=O)c1nc(-c2cccc(O)c2)nc2c1[nH]c(=O)n2-c1ccccc1F` [Compound 15, 9-(2-fluorophenyl)-2-(3-hydroxyphenyl)-8-oxo-8,9-dihydro-7H-purine-6-carboxamide]: the figures for the IC50 on mTOR and at IKK-2 were 0.1 to 5 µM and greater than 30 µM, respectively.

As to `COc1ccccc1-n1c(=O)[nH]c2c(C(N)=O)nc(-c3ccccc3C(F)(F)F)nc21` [Compound 29, 9-(2-methoxyphenyl)-8-oxo-2-(2-(trifluoromethyl)phenyl)-8,9-dihydro-7H-purine-6-carboxamide], the melting point was 237 to 240 °C. Moreover, the IC50 against mTOR is greater than 30 µM.

Compound `Cn1c(=O)[nH]c2c(C(N)=O)nc(-c3cccnc3)nc21` [Compound 7, 9-methyl-8-oxo-2-(pyridin-3-yl)-8,9-dihydro-7H-purine-6-carboxamide] yielded a melting point greater than 350 °C. The IC50 at IKK-2 is greater than 30 µM.

The compound `NC(=O)c1nc(-c2cccc(O)c2)nc2c1[nH]c(=O)n2Cc1ccccc1` [Compound 23, 9-benzyl-2-(3-hydroxyphenyl)-8-oxo-8,9-dihydro-7H-purine-6-carboxamide] gave a melting point of 362 to 366 °C. This compound also gave an IC50 on mTOR greater than 30 µM.
